Reference: patent publication US9475819B2, “Substituted 7-azabicycles and their use as orexin receptor modulators” (Janssen Pharmaceutica NV, priority 2013, dated 2016)

Columns and labels:
human orexin 1 receptor = human orexin 1 receptor (Homo sapiens (Human), UniProt O43613); experiment: Human orexin 1 receptor radioligand binding ([3H]-SB674042 competition, CHO cells); settings: [3H]-SB674042 competition binding, read-out: hOX1 Ki
human orexin 2 receptor = human orexin 2 receptor (Homo sapiens (Human), UniProt O43614); experiment: Human orexin 2 receptor radioligand binding ([3H]-EMPA competition, HEK293 cells); settings: [3H]-EMPA competition binding, read-out: hOX2 Ki
Chain of human orexin 2 receptor (O43614 whole entry): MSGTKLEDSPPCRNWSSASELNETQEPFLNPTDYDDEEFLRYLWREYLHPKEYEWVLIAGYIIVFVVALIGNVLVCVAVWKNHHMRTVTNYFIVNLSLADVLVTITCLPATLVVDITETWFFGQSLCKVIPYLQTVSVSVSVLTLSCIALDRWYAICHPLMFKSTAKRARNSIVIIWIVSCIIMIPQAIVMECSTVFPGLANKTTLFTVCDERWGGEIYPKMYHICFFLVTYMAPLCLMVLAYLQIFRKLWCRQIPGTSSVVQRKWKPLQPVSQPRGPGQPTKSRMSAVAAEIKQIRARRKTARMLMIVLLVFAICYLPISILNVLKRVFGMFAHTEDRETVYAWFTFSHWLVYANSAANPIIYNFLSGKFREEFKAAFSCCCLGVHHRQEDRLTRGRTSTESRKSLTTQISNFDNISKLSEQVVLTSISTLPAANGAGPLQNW

Chain of human orexin 1 receptor (O43613 whole entry): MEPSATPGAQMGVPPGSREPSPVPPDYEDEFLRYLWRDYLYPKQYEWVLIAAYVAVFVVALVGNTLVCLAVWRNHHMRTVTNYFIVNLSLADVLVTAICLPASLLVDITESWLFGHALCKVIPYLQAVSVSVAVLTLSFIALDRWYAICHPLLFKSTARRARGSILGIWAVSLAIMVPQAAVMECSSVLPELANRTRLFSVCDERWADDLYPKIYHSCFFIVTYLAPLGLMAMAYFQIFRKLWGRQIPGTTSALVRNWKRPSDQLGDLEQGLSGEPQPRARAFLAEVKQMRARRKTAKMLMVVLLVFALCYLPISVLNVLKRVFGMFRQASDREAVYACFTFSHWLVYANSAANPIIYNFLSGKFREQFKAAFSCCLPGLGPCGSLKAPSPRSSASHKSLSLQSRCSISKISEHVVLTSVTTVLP

Cc1ccc(-n2nccn2)c(C(=O)N2C3CCC2C(Nc2ccc(C(F)(F)F)cn2)C3)n1 (racemic) [Example 187, (±)-(6-methyl-3-(2H-1,2,3-triazol-2-yl)pyridin-2-yl)(2-((5-(trifluoromethyl)pyridin-2-yl)amino)-7-azabicyclo[2.2.1]heptan-7-yl)methanone]
Ki (human orexin 1 receptor): 48 nM | Ki (human orexin 2 receptor): 620 nM

Cc1ccc(-n2nccn2)c(C(=O)N2[C@H]3CC[C@@H]2[C@@H](COc2ccc(F)cn2)C3)c1 (single isomer, unassigned) [Example 10B]
Ki (human orexin 2 receptor): 5150 nM
